Counter-ions that a name gives are not always drawn.
SMILES	melting point
COc1nc(N)c(C#N)c(-c2ccc(CN)cc2)c1C#N.Cl	> 300 °C
COc1nc(N)c(C#N)c(C2CCCNC2)c1C#N (stereo not drawn)	176 to 178 °C
CSc1nc(N)c(C#N)c(-c2cccc(N)c2)c1C#N.Cl	277 to 278 °C
CSc1nc(N)c(C#N)c(-c2c[nH]cn2)c1C#N (as salt: HCl) (hydrate or solvate) [Example 82]	272 to 273 °C (dec.)
COc1nc(N)c(C#N)c(-c2ccnc(N)n2)c1C#N (as salt: HCl) (hydrate or solvate) [Example 174]	80 °C (dec.)
N#Cc1c(N)nc(OCc2cccnc2)c(C#N)c1-c1ccccc1 (as salt: HCl) (hydrate or solvate) [Example 208, 2-amino-4-phenyl-6-(pyridin-3-ylmethoxy)pyridine-3,5-dicarbonitrile]	174 to 175 °C
COc1nc(N)c(C#N)c(-c2ccc3cccnc3c2)c1C#N (as salt: HCl) [Example 172, 2-amino-6-methoxy-4-quinolin-7-ylpyridine-3,5-dicarbonitrile]	245 to 254 °C (dec.)
COc1nc(N)c(C#N)c(-c2ccc3nc[nH]c3c2)c1C#N (as salt: HCl) [Example 173]	299 to 300 °C
N#Cc1c(N)nc(N2CCNCC2)c(C#N)c1-c1ccccc1 (as salt: HCl) [Example 210]	260 to 263 °C (dec.)
COc1nc(N)c(C#N)c(-c2cnc(N)s2)c1C#N (as salt: chloride) [Example 67, 2-amino-4-(2-aminothiazol-5-yl)-6-methoxypyridine-3,5-dicarbonitrile mono hydro chloride]	240 to 242 °C (dec.)
COc1nc(N)c(C#N)c(C2CCNCC2)c1C#N (as salt: hydrochloride) (hydrate or solvate)	240 °C (dec.)
N#Cc1c(N)nc(OCCOC(=O)[C@@H](N)Cc2ccccc2)c(C#N)c1-c1ccccc1 (as salt: hydrochloride) (hydrate or solvate) [Example 15, 2-[(2-amino-3,5-dicyano-4-phenylpyridin-6-yl)oxy]ethyl (S)-2-amino-3-phenylpropanoate monohydrochloride monohydrate]	161 to 162 °C
COc1nc(N)c(C#N)c(-c2ccc(N)cc2)c1C#N.Cl.O (hydrate or solvate) [Example 20, 2-amino-(4-aminophenyl)-6-methoxypyridine-3,5-dicarbonitrile monohydrochloride monohydrate]	> 300 °C
COc1nc(N)c(C#N)c(-c2ccccc2)c1C#N [Example 2]	251 to 252 °C
CSc1nc(N)c(C#N)c(-c2ccsc2)c1C#N [Example 7, 2-amino-6-methylsulfanyl-4-(3-thienyl)pyridine-3,5-dicarbonitrile]	241 to 243 °C
N#Cc1c(N)nc(OCCO)c(C#N)c1-c1ccccc1 [Example 13, 2-amino-6-(2-hydroxyethoxy)-4-phenylpyridine-3,5-dicarbonitrile]	212 to 214 °C
CSc1nc(O)c(C#N)c(-c2cccs2)c1C#N [Example 23, 2-hydroxy-6-methylsulfanyl-4-thiophen-2-ylpyridine-3,5-dicarbonitrile]	245 °C (dec.)
CSc1nc(Br)c(C#N)c(-c2cccs2)c1C#N [Example 24, 2-bromo-6-methylsulfanyl-4-thiophen-2-ylpyridine-3,5-dicarbonitrile]	169 to 171 °C
COc1nc(N)c(C#N)c(-c2cccc(CO)c2)c1C#N [Example 34, 2-amino-4-[3-(hydroxymethyl)phenyl]-6-methoxypyridine-3,5-dicarbonitrile]	218.5 to 219.5 °C
COc1nc(N)c(C#N)c(-c2ccc(NS(C)(=O)=O)cc2)c1C#N [Example 38, N-[4-(2-amino-3,5-dicyano-6-methoxypyridin-4-yl)phenyl]methanesulfonamide]	265 to 266 °C
COc1nc(N)c(C#N)c(-c2cccc(C#N)c2)c1C#N [Example 49, 2-amino-4-(3-cyanophenyl)-6-methoxypyridine-3,5-dicarbonitrile]	298 to 299 °C
COc1nc(NC(C)=O)c(C#N)c(-c2c(F)cccc2F)c1C#N [Example 63, N-[3,5-dicyano-4-(2,6-difluorophenyl)-6-methoxypyridin-2-yl]acetamide]	200 to 201 °C
COc1nc(N)c(C#N)c(-c2cc[nH]c2)c1C#N [Example 66, 2-amino-6-methoxy-4-(1H-pyrrol-3-yl)pyridine-3,5-dicarbonitrile]	235 to 237 °C
COc1nc(NC(=O)N(C)C)c(C#N)c(-c2ccccc2F)c1C#N [Example 71, 3-[3,5-dicyano-4-(2-fluorophenyl)-6-methoxypyridin-2-yl]-1,1-dimethylurea]	82 to 86 °C
CCC(=O)N(C(=O)CC)c1nc(OC)c(C#N)c(-c2ccccc2F)c1C#N [Example 73, 2-dipropanoylamino-4-(2-fluorophenyl)-6-methoxypyridine-3,5-dicarbonitrile]	160 to 161 °C

Second part, the compound after the results:

melting point	SMILES
> 280 °C	Cl.Cl.N#Cc1c(NCCN)nc(NCCN)c(C#N)c1-c1ccccc1
285 to 288 °C (dec.)	Cl.Cl.N#Cc1c(N)nc(Sc2cccnc2)c(C#N)c1-c1cccc(N)c1
243 to 245 °C	CN(C)c1cccc(-c2c(C#N)c(N)nc(SCc3cccnc3)c2C#N)c1.Cl.Cl
156 to 158 °C	COc1nc(N(C(=O)Oc2ccccc2)C(=O)Oc2ccccc2)c(C#N)c(-c2ccccc2F)c1C#N
> 300 °C	N#Cc1c(N)nc(Oc2ccccc2CN)c(C#N)c1-c1ccccc1 (as salt: HCl) [Example 201, 2-amino-6-(2-aminomethylphenoxy)-4-phenylpyridine-3,5-dicarbonitrile]
270 to 272 °C	COc1nc(N)c(C#N)c(-c2ccc3cc[nH]c3c2)c1C#N (as salt: salt) (hydrate or solvate) [Example 171]
132 to 133 °C	CCN(CC)CCOc1ccc(-c2c(C#N)c(N)nc(OC)c2C#N)cc1.Cl (hydrate or solvate)
108 to 109 °C	COCC(=O)Nc1nc(OCC(F)F)c(C#N)c(-c2ccccc2F)c1C#N (hydrate or solvate) [Example 61, N-[3,5-dicyano-6-(2,2-difluoroethoxy)-4-(2-fluorophenyl)pyridin-2-yl]-2-metho xyacetamide]
> 300 °C	N#Cc1c(N)nc(Cl)c(C#N)c1-c1ccccc1 [Example 9, 2-amino-6-chloro-4-phenylpyridine-3,5-dicarbonitrile]
161 to 162 °C	CC(C)Oc1nc(N)c(C#N)c(-c2ccccc2F)c1C#N [Example 18, 2-amino-4-(2-fluorophenyl)-6-isopropoxypyridine-3,5-dicarbonitrile]
230 to 233 °C	COc1nc(NC(C)=O)c(C#N)c(-c2cccs2)c1C#N [Example 19, N-(3,5-dicyano-6-methoxy-4-thiophen-2-ylpyridin-2-yl)acetamide]
> 300 °C	N#Cc1c(N)nc(O)c(C#N)c1-c1ccc(N)cc1 [Example 21, 2-amino-(4-aminophenyl)-6-hydroxypyridine-3,5-dicarbonitrile]
255 to 257 °C (dec.)	COc1nc(O)c(C#N)c(-c2ccccc2)c1C#N [Example 25, 2-hydroxy-6-methoxy-4-phenylpyridine-3,5-dicarbonitrile]
148 to 149 °C	COc1ncc(C#N)c(-c2ccccc2)c1C#N [Example 26, 2-methoxy-4-phenylylpyridine-3,5-dicarbonitrile]
288 to 290 °C	CSc1nc(N)c(C#N)c(-c2ccc(C(=O)O)cc2)c1C#N [Example 29, 4-(2-amino-3,5-dicyano-6-methylsulfanylpyridin-4-yl)benzoic acid]
284 to 286 °C	N#Cc1c(N)nc(Oc2cccc(C(=O)O)c2)c(C#N)c1-c1ccccc1 [Example 31, 3-[(6-amino-3,5-dicyano-4-phenylpyridin-2-yl)oxy]benzoic acid]
170 to 172 °C	COc1nc(OCCO)c(C#N)c(-c2ccccc2)c1C#N [Example 33, 2-(2-hydroxyethoxy)-6-methoxy-4-phenylpyridine-3,5-dicarbonitrile]
> 300 °C	N#Cc1c(N)nc(N)c(C#N)c1-c1ccccc1 [Example 41, 2,6-diamino-4-phenylpyridine-3,5-dicarbonitrile]
156 to 158 °C	COc1nc(F)c(C#N)c(-c2ccccc2)c1C#N [Example 43, 2-fluoro-6-methoxy-4-phenylpyridine-3,5-dicarbonitrile]
233 to 235 °C	CS(=O)(=O)c1nc(N)c(C#N)c(-c2cccs2)c1C#N [Example 44, 2-amino-6-methanesulfonyl-4-thiophen-2-ylpyridine-3,5-dicarbonitrile]
> 250 °C	CSc1nc(NS(C)(=O)=O)c(C#N)c(-c2ccsc2)c1C#N [Example 45, N-(3,5-dicyano-6-methylsulfanyl-4-thiophen-3-ylpyridin-2-yl)methanesulfonamide]
137 to 138 °C	COc1nc(N(C(C)=O)C(C)=O)c(C#N)c(-c2ccccc2F)c1C#N [Example 59, 2-diacetylamino-4-(2-fluorophenyl)-6-methoxypyridine-3,5-dicarbonitrile]
168 to 169 °C	COCC(=O)Nc1nc(OC)c(C#N)c(-c2ccccc2F)c1C#N [Example 60, N-[3,5-dicyano-4-(2-fluorophenyl)-6-methoxypyridin-2-yl]-2-methoxyacetamide]
181 to 182 °C	COCC(=O)Nc1nc(OC)c(C#N)c(-c2c(F)cccc2F)c1C#N [Example 62, N-[3,5-dicyano-4-(2,6-difluorophenyl)-6-methoxypyridin-2-yl]-2-methoxyacetamide]
142 to 145 °C	COc1nc(NC(=O)C(F)(F)F)c(C#N)c(-c2ccccc2F)c1C#N [Example 69, N-[3,5-dicyano-4-(2-fluorophenyl)-6-methoxypyridin-2-yl]-2,2,2-trifluoroacetamide]
203 to 204 °C	COc1nc(NC(=O)C2CC2)c(C#N)c(-c2ccccc2F)c1C#N [Example 70, N-[3,5-dicyano-4-(2-fluorophenyl)-6-methoxypyridin-2-yl] cyclopropanecarboxamide]

Source: patent US20030232860A1, “Medicine comprising dicyanopyridine derivative” (priority 2000, published 2003)
